# Results from US8236523B2, “Camp reporters and high throughput assays” (The Johns Hopkins University, priority 2004, dated 2012).
# Columns and labels:
# Format in all cases: cell-based
# cAMP [1] = test: High throughput 96-well plate assay using ICUE2 stable HEK293 cells; conditions: 1 μM Iso, 50 μM Fsk, 10 μM H89, 100 μM IBMX
# Procedure: HEK293 cells which stably express ICUE2 (“ICUE2 stable HEK293 cells”) were grown to confluency in 10 cm dishes in DMEM, 10% FBS, 1% penicillin/streptomycin, and 250 μg/ml G418. HEK-293 cells were transfected with cDNA encoding ICUE2 using calcium phosphate at 40% confluency and allowed to grow for 40 hours. Cells were removed from the dish using 0.05% trypsin, spun down, and replaced with fresh media. ICUE2 stable HEK293 cells were counted on a hemocytometer using trypan blue stain. One hundred fifty thousand (150,000) cells were plated per well on a 96-well clear bottom assay plate in a total of 0.2 ml of media per […] and allowed to double once. Media was removed, cells were washed with Hanks buffered salt solution (HBSS) and then covered with 0.05 ml of HBSS per well. In a separate sterile plate, appropriate drugs were added to each well containing HBSS for a total volume of 0.05 ml. […] A baseline was established in three cycles, each consisting of a full plate reading of yellow intensity, followed by a reading of cyan intensity. Cells were then treated with isoproterenol (ISO; […] Readings were taken in six or twenty additional cycles. […] Baseline FRET ratios were calculated as the average ratio of yellow/cyan for each well before the addition of drug. FRET change was calculated as the percent increase of FRET ratio over baseline for each well during a given cycle. The FRET changes of all wells having undergone the same drug treatment were then averaged within each cycle, and that cycle was correlated with time.
# cAMP [2] = test: 96-well live cell plate reading of HEK293 cells expressing ICUE3; conditions: HEK293 cells expressing ICUE3, 1 μM ISO, 50 μM FSK
# Procedure: Plate reading used a 420DF20 excitation filter and two emission filters (470DF40 for cyan and 535DF25 for yellow). A baseline was established in three cycles, each consisting of a full plate reading of yellow intensity, followed by a reading of cyan intensity. Cells were then treated with isoproterenol (ISO; Aldrich), forskolin (Calbiochem), H89, propranolol, and 3-isobutyl-1-methylxanthine (IBMX) as indicated. Readings were taken in six or twenty additional cycles. Each cycle lasted 60 to 145 sec. Baseline FRET ratios were calculated as the average ratio of yellow/cyan for each well before the addition of drug. FRET change was calculated as the percent increase of FRET ratio over baseline for each well during a given cycle. The FRET changes of all wells having undergone the same drug treatment were then averaged within each cycle, and that cycle was correlated with time.
# Live cell plate reading. HEK293 cells were transfected with cDNA encoding ICUE reporters using calcium phosphate at 40% confluency and allowed to grow for 40 hours. Cells were then trypsinized and plated in a Costar 3603 96-well assay plate (Coming) at a density of 150,000 cells per well. After incubation for another 24 hours, cells were washed once with HBSS and left in 150 μl HBSS at 20-25° C. Fluorescence reading was taken on a FLUOstar OPTIMA fluorescence microplate reader (BMG Labtechnologies Inc.) using a 420DF20 excitation filter and two emission filters (470DF40 for cyan and […] for yellow). A baseline was established in three cycles, each consisting of a full plate reading of yellow intensity, followed by a reading of cyan intensity. Each cycle lasted between 64 and 145 seconds. Readings were taken in additional cycles. FRET change was calculated as the percent increase of emission ratios (cyan-to-yellow) over baseline for each well during a given cycle. To assess the efficacy of the assay, several statistical parameters were calculated, including Z factor, coefficient of variation, and signal-to-noise ratio (Zhang et al., J. Biomol. Screen. 4, 67-73, 1999).
# cAMP [3] = test: Dual-emission ratio (FRET) imaging of Epac-based cAMP reporters (ICUE1 and targeted fusions) in HEK-293 cells; conditions: HEK293 cells expressing ICUE1; 10 μM ISO, 50 μM FSK, 10 μM PGE1, 300 μM 8-pCPT-2′-O-Me-cAMP; average ± S.E.M
# Procedure: Cell Culture. […] Cells were then transfected with FuGENE-6 transfection reagent (Roche) or calcium phosphate and allowed to grow for 12-24 hours before imaging.
# Imaging. Cells were washed twice with Hanks' balanced salt solution buffer after 12- to 24-h incubation at 37° C. culture medium. Cells were maintained in buffer in the dark at room temperature with addition of isoproterenol (Aldrich), forskolin (Calbiochem), Prostaglandin E1 (PGE1) (Sigma), and 8-(4-chloro-phenylthio)-2′-O-methyl adenosine 3′,5′-monophosphate (8-pCPT-2′-O-Me-cAMP) (Axxora Biolog) as indicated. Cells were also treated with P-(4,5-dimethoxy-2-nitrobenzyl) adenosine 3′,5′-monophosphate (DMNB-cAMP) (Molecular Probe).
# Cells were imaged on a Zeiss Axiovert 200M microscope with a cooled charge-coupled device camera MicroMAX BFT512 (Roper Scientific) controlled by METAFLUOR 6.2 software (Universal Imaging). Dual-emission ratio imaging used a 420DF20 excitation filter, a 450DRLP dichroic mirror and two emission filters (475DF40 for ECFP, 535DF25 for citrine) alternated by a filter changer Lambda 10-2 (Sutter Instruments). Exposure time was 100-500 ms and images were taken every 8-30 s. Fluorescent images were background-corrected by subtracting autofluorescence intensities of untransfected cells (or background with no cells) from the emission intensities of fluorescent cells expressing reporters. The ratios of cyan to yellow emissions were then calculated at different time points and normalized by dividing all ratios by the emission ratio just prior to stimulation therefore setting the basal emission ratio to 1.
structure (smiles),measurement,setting,value
C=C[C@@]1(C)CC(=O)[C@]2(O)[C@@]3(C)[C@@H](O)CCC(C)(C)[C@@H]3[C@H](O)[C@H](OC(C)=O)[C@@]2(C)O1 [forskolin],"Average percent FRET response ± standard deviation, cycle 1",cAMP [1]; cycle 1 (1 cycle = 60 seconds),0.36% ± 7.51%
same,"Average percent FRET response ± standard deviation, cycle 2",cAMP [1]; cycle 2 (1 cycle = 60 seconds),2.67% ± 4.53%
same,"Average percent FRET response ± standard deviation, cycle 3",cAMP [1]; cycle 3 (1 cycle = 60 seconds),8.71% ± 6.66%
same,"Average percent FRET response ± standard deviation, cycle 4",cAMP [1]; cycle 4 (1 cycle = 60 seconds),15.29% ± 3.37%
same,"Average percent FRET response ± standard deviation, cycle 5",cAMP [1]; cycle 5 (1 cycle = 60 seconds),15.23% ± 6.55%
same,"Average percent FRET response ± standard deviation, cycle 6",cAMP [1]; cycle 6 (1 cycle = 60 seconds),18.73% ± 3.97%
same,"Average percent FRET response ± standard deviation, cycle 7",cAMP [1]; cycle 7 (1 cycle = 60 seconds),20.79% ± 4.6%
same,"Average percent FRET response ± standard deviation, cycle 8",cAMP [1]; cycle 8 (1 cycle = 60 seconds),22.82% ± 4.58%
same,"Average percent FRET response ± standard deviation, cycle 9",cAMP [1]; cycle 9 (1 cycle = 60 seconds),24.98% ± 3.69%
same,"Average percent FRET response ± standard deviation, cycle 10",cAMP [1]; cycle 10 (1 cycle = 60 seconds),23.4% ± 4.53%
same,"Average percent FRET response ± standard deviation, cycle 11",cAMP [1]; cycle 11 (1 cycle = 60 seconds),24.46% ± 3.51%
same,"Average percent FRET response ± standard deviation, cycle 12",cAMP [1]; cycle 12 (1 cycle = 60 seconds),25.44% ± 2.14%
same,"Average percent FRET response ± standard deviation, cycle 13",cAMP [1]; cycle 13 (1 cycle = 60 seconds),24.97% ± 3.91%
same,"Average percent FRET response ± standard deviation, cycle 14",cAMP [1]; cycle 14 (1 cycle = 60 seconds),25.6% ± 4.31%
same,"Average percent FRET response ± standard deviation, cycle 15",cAMP [1]; cycle 15 (1 cycle = 60 seconds),27.0% ± 1.87%
same,"Average percent FRET response ± standard deviation, cycle 16",cAMP [1]; cycle 16 (1 cycle = 60 seconds),25.84% ± 3.57%
same,"Average percent FRET response ± standard deviation, cycle 17",cAMP [1]; cycle 17 (1 cycle = 60 seconds),26.32% ± 1.66%
same,"Average percent FRET response ± standard deviation, cycle 18",cAMP [1]; cycle 18 (1 cycle = 60 seconds),25.94% ± 3.05%
same,"Average percent FRET response ± standard deviation, cycle 19",cAMP [1]; cycle 19 (1 cycle = 60 seconds),25.98% ± 2.13%
same,"Average percent FRET response ± standard deviation, cycle 20",cAMP [1]; cycle 20 (1 cycle = 60 seconds),25.51% ± 1.67%
same,"Average percent FRET response ± standard deviation, 0 sec.","cAMP [2]; 0 sec., 10 μM PRO, 100 μM IBMX, 10 μM H89",9.05% ± 3.18%
same,"Average percent FRET response ± standard deviation, 145 sec.","cAMP [2]; 145 sec., 10 μM PRO, 100 μM IBMX, 10 μM H89",13.0% ± 3.17%
same,"Average percent FRET response ± standard deviation, 290 sec.","cAMP [2]; 290 sec., 10 μM PRO, 100 μM IBMX, 10 μM H89",14.8% ± 3.35%
same,"Average percent FRET response ± standard deviation, 435 sec.","cAMP [2]; 435 sec., 10 μM PRO, 100 μM IBMX, 10 μM H89",16.7% ± 3.33%
same,"Average percent FRET response ± standard deviation, 580 sec.","cAMP [2]; 580 sec., 10 μM PRO, 100 μM IBMX, 10 μM H89",16.8% ± 3.27%
same,"Average percent FRET response ± standard deviation, 725 sec.","cAMP [2]; 725 sec., 10 μM PRO, 100 μM IBMX, 10 μM H89",17.9% ± 3.63%
same,maximal response / emission ratio change,cAMP [2]; n=7,17.9%±3.6%
same,increase in the ratio of cyan to yellow emissions (FRET response),cAMP [3],19.6%±1.0
